EP0398426A1, “Antirhinoviral (thio)morpholinyl and piperazinyl alkylphenol ethers” (JANSSEN PHARMACEUTICA N.V., priority 1989, dated 1990)
In brackets after ≈: the same amount, converted by molar mass.

Legend:
[1] = system: Human Rhinovirus serotypes HRV- 2,-29,-39,-85,-9,-15,-51,-59,-63,-89,-41; experiment: Picornavirus Minimal Inhibitory Concentration Test (cytopathic effect reduction assay), first panel of rhinoviruses; assay type: cell-based; conditions: Human rhinovirus sp.; medium value of the IC50-values of all serotypes of the first panel; Ohio Hela cells, 3 to 5 days at 33°C; concentration protecting 50% of the cells from cytopathic effects; read-out: Med₁
Method: (§1) The Minimal Inhibitory Concentration of the compounds of the present invention against the Human Rhinovirus strains (HRV) -2,-9,-14,-15,-29,-39,-41,-42,-45,-51,-59,-63, -70,-72,-85,-86,-89 was determined by a standard cytopathic effect reduction assay as follows. To each of the ninty six (96) wells of a microtiter 96 well tissue culture plate there was added 60 µl of a Ohio Hela cell maintenance medium [Eagle's Basal medium supplemented with 5% Foetal Calf Serum (FCS)]. To two wells there was added 60 µl of an appropriate starting dilution of a compound of formula (I) and two-fold dilutions were made to cover a wide range of compound concentrations. Subsequently there were added 120 µl of an infectious solution of virus in Eagle's Basal Medium with 2% Hepes buffer, 2% FCS and 30 mM MgCl₂ to all wells except cell and compound controls. Said infectious virus solution having a TCID₅₀-value (Tissue Culture Infectious Dose) of about 100.
(§2) The TCID₅₀-value is the dose of viruses which initiates a cytopathic effect in 50% of the inoculated cells. 150 µl of the thus obtained virus-compound mixtures were then transferred to microtitre plates with subconfluent Ohio Hela Cells, grown in 100 µl of maintenance medium. Appropriate virus controls, cell controls and compound controls were included in each test. […] The IC₅₀-value for each virus-compound series was taken as the concentration in ng/ml that protected 50% of the cells from cytopathic effects with respect to the untreated controls. In the standard test procedure, the compounds were tested against two panels of rhinoviruses, a first panel consisting of serotypes HRV- 2,-29,-39,-85,-9,-15,-51,-59,-63,-89,-41 and the other panel consisting of HRV-42,-45,-14,-70,-72 and -86.
(§3) The IC₅₀-value for each rhinovirus serotype was determined, and the efficacy of each compound was determined in terms of the Med₁-value and Med₂-value, which is the medium value of the IC₅₀-values of all serotypes from the first and second panel respectively.

[2] = system: Human Rhinovirus serotypes HRV-42,-45,-14,-70,-72 and -86; experiment: Picornavirus Minimal Inhibitory Concentration Test (cytopathic effect reduction assay), second panel of rhinoviruses; assay type: cell-based; conditions: Human rhinovirus sp., HRV42, HeLa, read-out: Med₂
Method: as §1, §2, §3

CCOC(=O)c1ccc(OCCC2CN(c3ccc(SC)nn3)CCO2)cc1 (stereo not drawn) [compound 23, ethyl 4-[2-[4-[6-(methylthio)-3-pyridazinyl]-2-morpholinyl]ethoxy]benzoate]
IC50 [1]: 3 ng/mL (≈ 0.00743 µM) | IC50 [2]: 12 ng/mL (≈ 0.0297 µM)

CCOC(=O)c1ccc(OCCC2CN(c3ccc(Cl)nn3)CCO2)cc1 (stereo not drawn) [compound 11]
IC50 [1]: 6 ng/mL (≈ 0.0153 µM) | IC50 [2]: 29 ng/mL (≈ 0.074 µM)

CCOC(=O)c1ccc(OCCC2CN(c3nnc(C)s3)CCO2)cc1 (stereo not drawn) [compound 21]
IC50 [1]: 6 ng/mL (≈ 0.0159 µM) | IC50 [2]: 21 ng/mL (≈ 0.0556 µM)

CCOC(=O)c1ccc(OCCC2CN(c3ccc(C)nn3)CCO2)cc1 (stereo not drawn) [compound 26]
IC50 [1]: 5 ng/mL (≈ 0.0135 µM) | IC50 [2]: 29 ng/mL (≈ 0.0781 µM)

CCOC(=O)c1ccc(OCCC2CN(c3ccc(I)nn3)CCO2)cc1 (stereo not drawn) [compound 20]
IC50 [1]: 2 ng/mL (≈ 0.00414 µM) | IC50 [2]: 12 ng/mL (≈ 0.0248 µM)

CCOC(=O)c1ccc(OCCC2CN(c3ccc(Br)nn3)CCO2)cc1 (stereo not drawn) [compound 17]
IC50 [1]: 2 ng/mL (≈ 0.00458 µM) | IC50 [2]: 22 ng/mL (≈ 0.0504 µM)
